Assay results from ChEMBL document CHEMBL3217566, “Unprecedented inhibition of resistant penicillin binding proteins by bis-2-oxoazetidinyl macrocycles” (Medchemcomm, 2012).

Assays:
[1] = system: Actinomadura sp. R39; test: Inhibition of Actinomadura R39 D,D-peptidase assessed as inhibition of hydrolysis of thiolester substrate S2d measured as residual activity at 100 uM after 1 hr by Ellman's method
[2] = system: Enterococcus faecium; test: Inhibition of Enterococcus faecium D63r PBP5 assessed as assessed as residual activity at 1 mM after 4 hrs by fluorescence spectroscopy in presence of fluorescein-labeled ampicillin
[3] = system: Staphylococcus aureus; test: Inhibition of methicillin-resistant Staphylococcus aureus ATCC 43300 PBP5 assessed as residual activity at 1 mM after 4 hrs by fluorescence spectroscopy in presence of fluorescein-labeled ampicillin

SMILES | Activity [1] [%] | Activity [2] [%] | Activity [3] [%]
C=CCCCCC(=O)N[C@H]1CN(C(=O)CCC=C)C1=O | 91 | 14 | 89
C=CCCCC(=O)N[C@H]1CN(C(=O)CCCC=C)C1=O | 90 | 17 | 100
CCCCCCC(=O)N[C@H]1CN(C(=O)CCCCCCC(=O)N2C[C@H](NC(=O)CCCCCC)C2=O)C1=O | 74 | 10 | 99
C=CCCCCC(=O)N1C[C@H](NC(=O)CCCC=C)C1=O | 86 | 15 | 82
CCCCC(=O)N1C[C@H](NC(=O)CCCC/C=C/CCCCC(=O)N[C@H]2CN(C(=O)CCCC)C2=O)C1=O | 90 | 5 | 89
C=CCCCCC(=O)N[C@H]1CN(C(=O)CCCC)C1=O | 97 | 5 | 100
C=CCCCCC(=O)N1C[C@H](NC(=O)CCC=C)C1=O | 72 | 50 | 77
C=CCCCC(=O)N1C[C@H](NC(=O)CCC=C)C1=O | 99 | 39 | 100
CCCCC(=O)N1C[C@H](NC(=O)CCCCCCCCCCC(=O)N[C@H]2CN(C(=O)CCCC)C2=O)C1=O | 89 | 3 | 90
CCCCCCC(=O)N[C@H]1CN(C(=O)CC/C=C/CCC(=O)N2C[C@H](NC(=O)CCCCCC)C2=O)C1=O | 100 | 0 | 100
C=CCCC(=O)N1C[C@H](NC(=O)CCCCCC)C1=O | 92 | 6 | 100
C=CCCCCC(=O)N[C@H]1CN(C(=O)CCCCC=C)C1=O | 80 | 23 | 81
C=CCCCCC(=O)N[C@H]1CN(C(=O)CCCC=C)C1=O | 74 | 21 | 85
C=CCCC(=O)N[C@H]1CN(C(=O)CCC=C)C1=O | 72 | > 100 | 79
C=CCCCC(=O)N[C@H]1CN(C(=O)CCC=C)C1=O | 98 | 14 | 93
